ChEMBL document CHEMBL1128066, “Synthesis and antiviral activity of dihydroxycyclohexyl pyrimidine and purine carbocyclic nucleosides” (Bioorg Med Chem Lett, 1995)

Tests used:
Type in all cases: functional, cell-based
[1] = test system: PEU; assay: Antiviral activity was evaluated by the plaque reduction method against Cytomegalovirus (CMV) in PEU cells; conditions: Homo sapiens
[2] = test system: PEU; assay: Compound was tested for its overt cytotoxicity in virus free PEU cell culture; conditions: Homo sapiens
[3] = test system: Vero; assay: Antiviral activity was evaluated by the plaque reduction method against Herpes virus 2 (HSV-2) in Vero cells; conditions: Chlorocebus sabaeus
[4] = test system: Vero; assay: Antiviral activity was evaluated by the plaque reduction method against Herpes virus 1 (HSV-1) in Vero cells; conditions: Chlorocebus sabaeus

| Structure (SMILES) | EC50 [1] | IC50 [2] | EC50 [3] | EC50 [4] |
| --- | --- | --- | --- | --- |
| Nc1nc(O)c2ncn(C3CCC(O)CC3O)c2n1 (configuration not stated) | 188 µM | > 250 µM | 188 µM | 188 µM |
| Nc1ncnc2c1ncn2C1CCC(O)CC1O (configuration not stated) | 200 µM | > 250 µM | 30 µM | 28.5 µM |
| Nc1nc(O)c2ncn(C3CCC(OCc4ccccc4)CC3O)c2n1 (configuration not stated) | 140 µM | > 250 µM | 22.1 µM | 21.2 µM |
| O=c1ccn(C2CC(O)CCC2O)c(=O)[nH]1 (configuration not stated) | 0.97 µM | > 250 µM | 0.97 µM | 10 µM |
| O=c1ccn(C2CCC(O)CC2O)c(=O)[nH]1 (configuration not stated) | 10 µM | > 250 µM | 0.97 µM | 0.97 µM |

The next lines start with results.

| EC50 [1] | Structure (SMILES) | IC50 [2] | EC50 [3] | EC50 [4] |
| --- | --- | --- | --- | --- |
| 10 µM | O=c1ccn([C@@H]2CC[C@H](OCc3ccccc3)C[C@H]2O)c(=O)[nH]1 | > 250 µM | 158 µM | 158 µM |
| 10 µM | O=c1ccn([C@@H]2C[C@@H](OCc3ccccc3)CC[C@H]2O)c(=O)[nH]1 | > 250 µM | 10 µM | 10 µM |
| 147 µM | Nc1ncnc2c1ncn2C1CCC(OCc2ccccc2)CC1O (configuration not stated) | > 250 µM | 16.2 µM | 16.8 µM |
